Structures can show the parent of a compound that is named as a salt.
tested on: Acinetobacter baumannii ATCC17961; experiment: Antimicrobial susceptibility testing: 90% growth inhibitory concentration (IC90) determination, Iso-Sensitest broth; type: cell-based; settings: Acinetobacter baumannii, ATCC17961, 16 h, 90% growth inhibitory concentration, Acinetobacter baumannii ATCC17961, Iso-Sensitest broth, OD 600 nm over 16 h; read-out: ATCC17961 IC90
Procedure: Antimicrobial Susceptibility Testing:
90% Growth Inhibitory Concentration (IC90) Determination
The in vitro antimicrobial activity of the compounds was determined according to the following procedure:
The assay used a 10-points Iso-Sensitest broth medium to measure quantitatively the in vitro activity of the compounds against Acinetobacter baumannii ATCC17978 and Acinetobacter baumannii ATCC17961.
Stock compounds in DMSO were serially twofold diluted (e.g. range from 50 to 0.097 μM final concentration) in 384 wells microtiter plates and inoculated with 49 μl the bacterial suspension in Iso-Sensitest medium to have a final cell concentration of 5×10^(5) CFU/ml in a final volume/well of 50 ul/well. Microtiter plates were incubated at 35±2° C.
Bacterial cell growth was determined with the measurement of optical density at λ=600 nm each 20 minutes over a time course of 16 h. Growth inhibition was calculated during the logarithmic growth of the bacterial cells with determination of the concentration inhibiting 50% (IC50) and 90% (IC90) of the growth.
Table 1 provides the 90% growth inhibitory concentrations (IC90) in micromoles per liter of the compounds of present invention obtained against the strain Acinetobacter baumannii ATCC17978 and Acinetobacter baumannii ATCC17961.

Row | Compound | IC90 [nM]
1 | COc1ccc(-c2cnc3c(Nc4ccc(C(=O)N5CCN(C(=O)NCCN)CC5)c(C)c4)nccn23)c(Cl)c1F [Example 153, N-(2-aminoethyl)-4-[4-[[3-(2-chloro-3-fluoro-4-methoxy-phenyl)imidazo[1,2-a]pyrazin-8-yl]amino]-2-methyl-benzoyl]piperazine-1-carboxamide formate] | 50
2 | Cc1cc(Nc2nccn3c(-c4ccc(OCC#N)c(F)c4Cl)cnc23)ccc1C(=O)N1CCN(C(=O)N2CCO[C@@H](CN)C2)CC1 [Example 158, 2-[4-[8-[4-[4-[(2S)-2-(aminomethyl)morpholine-4-carbonyl]piperazine-1-carbonyl]-3-methyl-anilino]imidazo[1,2-a]pyrazin-3-yl]-3-chloro-2-fluoro-phenoxy]acetonitrile formate] | 74
3 | Cc1cc(Nc2nccn3c(-c4ccc(OCC#N)c(F)c4Cl)cnc23)ccc1C(=O)N1CCN(C(=O)NCCN)CC1 [Example 159, N-(2-aminoethyl)-4-[4-[[3-[2-chloro-4-(cyanomethoxy)-3-fluoro-phenyl]imidazo[1,2-a]pyrazin-8-yl]amino]-2-methyl-benzoyl]piperazine-1-carboxamide formate] | 35
4 | Cc1cc(Nc2nccn3c(-c4ccc(OCC#N)c(F)c4Cl)cnc23)ccc1C(=O)N1CCN(C(=O)N[C@@H](C)CN)CC1 [Example 162, N-[(1S)-2-amino-1-methyl-ethyl]-4-[4-[[3-[2-chloro-4-(cyanomethoxy)-3-fluoro-phenyl]imidazo[1,2-a]pyrazin-8-yl]amino]-2-methyl-benzoyl]piperazine-1-carboxamide formate] | 46
5 | COc1ccc(-c2cnc3c(Nc4ccc(C(=O)N5CCN(C(=O)N6CCN[C@@H](CO)C6)CC5)c(C)c4)nccn23)c(F)c1F [Example 172, (R)-(4-(4-((3-(2,3-difluoro-4-methoxyphenyl)imidazo[1,2-a]pyrazin-8-yl)amino)-2-methylbenzoyl)piperazin-1-yl)(3-(hydroxymethyl)piperazin-1-yl)methanone hydrochloride] | 78
6 | Cc1cc(Nc2nccn3c(-c4ccc(OC(F)F)cc4)cnc23)ccc1C(=O)N1CCN(C(=O)C2CCNCC2)CC1 [Example 173, [4-[[3-[4-(difluoromethoxy)phenyl]imidazo[1,2-a]pyrazin-8-yl]amino]-2-methyl-phenyl]-[4-(piperidine-4-carbonyl)piperazin-1-yl]methanone hydrochloride] | 35
7 | COc1ccc(-c2cnc3c(Nc4ccc(C(=O)N5CCN(C(=O)[C@@H]6C[C@@H](O)CN6)CC5)c(C)c4)nccn23)c(F)c1F [Example 184, [4-[[3-(2,3-difluoro-4-methoxy-phenyl)imidazo[1,2-a]pyrazin-8-yl]amino]-2-methyl-phenyl]-[4-[(2S,4R)-4-hydroxypyrrolidine-2-carbonyl]piperazin-1-yl]methanone hydrochloride] | 41
8 | COc1ccc(-c2cnc3c(Nc4ccc(C(=O)N5CCN(C(=O)C6(O)CCNCC6)CC5)c(C)c4)nccn23)c(F)c1F [Example 204, [4-[[3-(2,3-difluoro-4-methoxy-phenyl)imidazo[1,2-a]pyrazin-8-yl]amino]-2-methyl-phenyl]-[4-(4-hydroxypiperidine-4-carbonyl)piperazin-1-yl]methanone hydrochloride] | 46
9 | Cc1cc(Nc2nccn3c(-c4ccc(OCC#N)c(F)c4Cl)cnc23)ccc1C(=O)N1CCN(C(=O)[C@@H]2C[C@@H](O)CN2)CC1 [Example 211, 2-[3-chloro-2-fluoro-4-[8-[4-[4-[(2S,4R)-4-hydroxypyrrolidine-2-carbonyl]piperazine-1-carbonyl]-3-methyl-anilino]imidazo[1,2-a]pyrazin-3-yl]phenoxy] acetonitrile formate] | 42
10 | Cc1cc(Nc2nccn3c(-c4ccc(OCC#N)c(F)c4Cl)cnc23)ccc1C(=O)N1CCN(C(=O)C2(O)CCNCC2)CC1 [Example 214, 2-[3-chloro-2-fluoro-4-[8-[4-[4-(4-hydroxypiperidine-4-carbonyl)piperazine-1-carbonyl]-3-methyl-anilino]imidazo[1,2-a]pyrazin-3-yl]phenoxy] acetonitrile formate] | 41

Next, values leading:

Row | IC90 [nM] | Compound
11 | 51 | Cc1cc(Nc2nccn3c(-c4ccc(OCC#N)c(F)c4F)cnc23)ccc1C(=O)N1CCN(C(=O)[C@@H]2CCNC[C@@H]2O)CC1 [Example 188, 2-[2,3-difluoro-4-[8-[4-[4-[(3R,4R)-3-hydroxypiperidine-4-carbonyl]piperazine-1-carbonyl]-3-methyl-anilino]imidazo[1,2-a]pyrazin-3-yl]phenoxy] acetonitrile formate]
12 | 60 | Cc1cc(Nc2nccn3c(-c4ccc(OCC#N)c(F)c4F)cnc23)ccc1C(=O)N1CCN(C(=O)[C@H]2CCNC[C@H]2O)CC1 [Example 189, 2-[2,3-difluoro-4-[8-[4-[4-[(3S,4S)-3-hydroxypiperidine-4-carbonyl]piperazine-1-carbonyl]-3-methyl-anilino]imidazo[1,2-a]pyrazin-3-yl]phenoxy] acetonitrile formate]
13 | 46 | Cc1cc(Nc2nccn3c(-c4ccc(OCC#N)c(F)c4F)cnc23)ccc1C(=O)N1CCN(C(=O)[C@@H]2CCNC[C@H]2O)CC1 [Example 190, 2-[2,3-difluoro-4-[8-[4-[4-[(3S,4R)-3-hydroxypiperidine-4-carbonyl]piperazine-1-carbonyl]-3-methyl-anilino]imidazo[1,2-a]pyrazin-3-yl]phenoxy] acetonitrile formate]
14 | 73 | Cc1cc(Nc2nccn3c(-c4ccc(OCC#N)c(F)c4F)cnc23)ccc1C(=O)N1CCN(C(=O)[C@H]2CCNC[C@@H]2O)CC1 [Example 191, 2-[2,3-difluoro-4-[8-[4-[4-[(3R,4S)-3-hydroxypiperidine-4-carbonyl]piperazine-1-carbonyl]-3-methyl-anilino]imidazo[1,2-a]pyrazin-3-yl]phenoxy] acetonitrile formate]
15 | 52 | Cc1cc(Nc2nccn3c(-c4ccc(OCC#N)c(F)c4F)cnc23)ccc1C(=O)N1CCN(C(=O)C2CCNCC2)CC1 [Example 197, 2-[2,3-difluoro-4-[8-[3-methyl-4-[4-(piperidine-4-carbonyl)piperazine-1-carbonyl]anilino]imidazo [1,2-a]pyrazin-3-yl]phenoxy] acetonitrile formate]
16 | 39 | Cc1cc(Nc2nccn3c(-c4ccc(OCC#N)c(F)c4F)cnc23)ccc1C(=O)N1CCN(C(=O)[C@@H]2CCNC2)CC1 [Example 198, 2-[2,3-difluoro-4-[8-[3-methyl-4-[4-[(3R)-pyrrolidine-3-carbonyl]piperazine-1-carbonyl]anilino]imidazo[1,2-a]pyrazin-3-yl]phenoxy] acetonitrile formate]
17 | 67 | Cc1cc(Nc2nccn3c(-c4ccc(OCC#N)c(F)c4F)cnc23)ccc1C(=O)N1CCN(C(=O)[C@@H]2C[C@@H](O)CN2)CC1 [Example 200, 2-[2,3-difluoro-4-[8-[4-[4-[(2S,4R)-4-hydroxypyrrolidine-2-carbonyl]piperazine-1-carbonyl]-3-methyl-anilino]imidazo[1,2-a]pyrazin-3-yl]phenoxy] acetonitrile formate]
18 | 36 | Cc1cc(Nc2nccn3c(-c4ccc(OCC#N)c(F)c4F)cnc23)ccc1C(=O)N1CCN(C(=O)C2(O)CCNCC2)CC1 [Example 206, 2-[2,3-difluoro-4-[8-[4-[4-(4-hydroxypiperidine-4-carbonyl)piperazine-1-carbonyl]-3-methyl-anilino]imidazo[1,2-a]pyrazin-3-yl]phenoxy] acetonitrile formate]
19 | 68 | Cc1cc(Nc2nccn3c(-c4ccc(OCC#N)c(F)c4Cl)cnc23)ccc1C(=O)N1CCN(C(=O)C2CCNCC2)CC1 [Example 209, 2-[3-chloro-2-fluoro-4-[8-[3-methyl-4-[4-(piperidine-4-carbonyl)piperazine-1-carbonyl]anilino]imidazo[1,2-a]pyrazin-3-yl]phenoxy] acetonitrile formate]
20 | 34 | Cc1cc(Nc2nccn3c(-c4ccc(OCC#N)c(F)c4Cl)cnc23)ccc1C(=O)N1CCN(C(=O)[C@@H]2CCNC2)CC1 [Example 212, 2-[3-chloro-2-fluoro-4-[8-[3-methyl-4-[4-[(3R)-pyrrolidine-3-carbonyl]piperazine-1-carbonyl]anilino]imidazo[1,2-a]pyrazin-3-yl]phenoxy] acetonitrile formate]
21 | 33 | Cc1cc(Nc2nccn3c(-c4ccc(OCC#N)c(F)c4Cl)cnc23)ccc1C(=O)N1CCN(C(=O)[C@H]2CCNC2)CC1 [Example 213, 2-[3-chloro-2-fluoro-4-[8-[3-methyl-4-[4-[(3S)-pyrrolidine-3-carbonyl]piperazine-1-carbonyl]anilino]imidazo[1,2-a]pyrazin-3-yl]phenoxy] acetonitrile formate]
22 | 64 | Cc1cc(Nc2nccn3c(-c4ccc(OCC#N)c(F)c4Cl)cnc23)ccc1C(=O)N1CCN(C(=O)[C@H]2CCNC[C@@H]2O)CC1 [Example 220, 2-[3-chloro-2-fluoro-4-[8-[4-[4-[(3R,4S)-3-hydroxypiperidine-4-carbonyl]piperazine-1-carbonyl]-3-methyl-anilino]imidazo[1,2-a]pyrazin-3-yl]phenoxy] acetonitrile formate]

From US20230011869A1 (Hoffmann-La Roche Inc., priority 2018, published 2023)
